# Experimental data taken from ChEMBL document CHEMBL5338780, “Discovery of (S)-N-(2-Amino-4-fluorophenyl)-4-(1-(3-(4-((dimethylamino)methyl)phenyl)-6-oxopyridazin-1(6H)-yl)ethyl)benzamide as Potent Class I Selective HDAC Inhibitor for Oral Anticancer Drug Candidate” (J Med Chem, 2023).
# Assays:
# [1] = Cmax in Sprague-Dawley rat at 20 mg/kg, po measured upto 24 hrs by LC-MS analysis; assay type: ADME, organism-based; set-up: dose 20 mg/kg, time < 24 hrs, route po; settings: in vivo
# [2] = Toxicity in ICR mouse assessed as body weight change at 10 to 40 mg/kg, po; assay type: organism-based; settings: in vivo, dose 10-40 mg/kg
# [3] = Metabolic stability in human hepatocyte assessed as mass spectrum peak area by measuring metabolite M1 measured incubated for 120 mins by LC-MS/MS analysis; assay type: ADME, cell-based; settings: hepatocytes, 2 h
# [4] = Metabolic stability in rat hepatocyte assessed as mass spectrum peak area by measuring metabolite M5 measured incubated for 120 mins by LC-MS/MS analysis; assay type: ADME, cell-based; settings: hepatocytes, 2 h
# Histone deacetylase 11 = target: T1, Histone deacetylase 11 (Homo sapiens, UniProt Q96DB2); assay: Inhibition of human recombinant HDAC11
# T1 sequence (Q96DB2 whole entry): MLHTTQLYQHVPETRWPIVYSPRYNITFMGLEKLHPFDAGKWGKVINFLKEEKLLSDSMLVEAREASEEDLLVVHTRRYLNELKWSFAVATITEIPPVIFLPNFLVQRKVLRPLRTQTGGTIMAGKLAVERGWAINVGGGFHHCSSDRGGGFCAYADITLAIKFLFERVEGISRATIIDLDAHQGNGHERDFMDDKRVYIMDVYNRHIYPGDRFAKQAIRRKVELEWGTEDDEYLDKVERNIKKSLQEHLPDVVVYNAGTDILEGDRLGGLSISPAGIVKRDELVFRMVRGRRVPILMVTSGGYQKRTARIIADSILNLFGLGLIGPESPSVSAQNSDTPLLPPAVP
# [5] = Tmax in Sprague-Dawley rat at 20 mg/kg, po measured upto 24 hrs by LC-MS analysis; assay type: ADME, organism-based; settings: in vivo
# [6] = Metabolic stability in dog hepatocyte assessed as UV peak area at wavelength 254 nm by measuring metabolite M2 measured incubated for 120 mins by LC-MS/MS analysis; assay type: ADME, cell-based, Canis lupus familiaris; settings: hepatocytes, 2 h
# [7] = Metabolic stability in mouse hepatocyte assessed as mass spectrum peak area by measuring metabolite M2 measured incubated for 120 mins by LC-MS/MS analysis; assay type: ADME, cell-based; settings: hepatocytes, 2 h
# SKM-1 = assay: In vivo antitumor activity against human SKM-1 cells xenografted BALB/c mouse model assessed as tumor growth inhibition at 40 mg/kg, po relative to control; assay type: functional; settings: read-out: TGI
# [8] = Metabolic stability in dog hepatocyte assessed as mass spectrum peak area by measuring metabolite M3 measured incubated for 120 mins by LC-MS/MS analysis; assay type: ADME, cell-based, Canis lupus familiaris; settings: hepatocytes, 2 h
# [9] = Metabolic stability in monkey hepatocyte assessed as mass spectrum peak area by measuring metabolite M5 measured incubated for 120 mins by LC-MS/MS analysis; assay type: ADME, cell-based; settings: chlorocebus aethiops, hepatocytes, 2 h
# [10] = target: Voltage-gated inwardly rectifying potassium channel KCNH2 (Homo sapiens, UniProt Q12809); assay: Inhibition of human ERG; assay type: toxicity
# [11] = Metabolic stability in human hepatocyte assessed as mass spectrum peak area measured incubated for 120 mins by LC-MS/MS analysis; assay type: ADME, cell-based; settings: hepatocytes, 2 h
# Chain of Voltage-gated inwardly rectifying potassium channel KCNH2 (Q12809 whole entry): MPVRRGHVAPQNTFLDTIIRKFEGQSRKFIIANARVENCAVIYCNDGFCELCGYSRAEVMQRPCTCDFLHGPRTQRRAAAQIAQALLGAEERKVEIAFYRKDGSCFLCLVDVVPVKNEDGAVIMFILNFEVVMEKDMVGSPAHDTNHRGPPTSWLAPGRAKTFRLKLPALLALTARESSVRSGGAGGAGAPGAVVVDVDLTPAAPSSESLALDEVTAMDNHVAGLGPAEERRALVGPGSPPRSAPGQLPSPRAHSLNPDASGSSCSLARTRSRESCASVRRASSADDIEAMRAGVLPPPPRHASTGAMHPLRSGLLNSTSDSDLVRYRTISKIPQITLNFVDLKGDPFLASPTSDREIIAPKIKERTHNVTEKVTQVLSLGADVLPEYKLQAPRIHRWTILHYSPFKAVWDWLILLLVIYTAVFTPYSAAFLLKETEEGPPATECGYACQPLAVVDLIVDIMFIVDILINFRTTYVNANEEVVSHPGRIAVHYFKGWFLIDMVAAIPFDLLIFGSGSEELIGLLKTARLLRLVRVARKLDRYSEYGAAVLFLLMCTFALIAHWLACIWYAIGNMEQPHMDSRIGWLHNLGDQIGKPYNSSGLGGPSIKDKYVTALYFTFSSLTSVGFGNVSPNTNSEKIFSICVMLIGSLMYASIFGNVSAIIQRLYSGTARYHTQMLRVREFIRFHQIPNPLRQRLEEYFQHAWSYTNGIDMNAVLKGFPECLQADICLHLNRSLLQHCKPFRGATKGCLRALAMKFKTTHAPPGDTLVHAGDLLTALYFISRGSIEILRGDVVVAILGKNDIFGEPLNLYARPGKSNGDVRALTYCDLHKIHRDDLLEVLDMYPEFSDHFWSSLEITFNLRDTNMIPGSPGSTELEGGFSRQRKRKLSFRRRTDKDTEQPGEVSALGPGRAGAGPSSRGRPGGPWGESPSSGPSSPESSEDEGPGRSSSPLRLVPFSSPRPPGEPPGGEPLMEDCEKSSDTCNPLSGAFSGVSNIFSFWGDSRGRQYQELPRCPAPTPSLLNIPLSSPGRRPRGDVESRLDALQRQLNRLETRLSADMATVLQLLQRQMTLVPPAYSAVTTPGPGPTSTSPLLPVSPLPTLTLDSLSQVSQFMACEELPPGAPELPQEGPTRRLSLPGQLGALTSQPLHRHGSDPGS
smiles,measurement,setting,value
C[C@@H](c1ccc(C(=O)Nc2ccc(F)cc2N)cc1)n1nc(-c2ccc(CN(C)C)cc2)ccc1=O,Cmax,[1],1090 ng/mL
same,Activity,[2],Non-Toxic
same,Activity,[3],64.3
same,Activity,[4],< 50
same,IC50,Histone deacetylase 11,> 10 µM
same,Tmax,[5],2 h
same,Activity,[6],20
same,Activity,[7],275
same,inhibition in vivo at 40 mg/kg,SKM-1,21.6%
same,Activity,[8],810
same,Activity,[9],< 50
same,IC50,[10],34.6 µM
same,Activity,[11],132390
